Data as given in patent publication US11578321B2, “Recombinant HBV reporter system” (Helmholtz Zentrum München Deutsches Forschungszentrum für …, priority 2018, dated 2023).

Legend:
rHBV-CreN [1] = test: Detection of Cre-lox recombination by PCR in rHBV-CreN infected CreC/CIR cells; format: cell-based, hepatitis B virus; details: rHBV-CreN infected CreC/CIR cells treated with MyrB
Method: (§1) HepG2-NTCP-CreC/CIR cells were seeded on collagen-coated plates with a density of 1.34×10^3 cells/mm^2 and cultured in DMEM containing 2.5% dimethylsulfoxide (DMSO) for 2 days prior to infection. The inoculum was prepared by diluting the virus in DMEM containing 2.5% DMSO and 4% PEG8000. For blocking rHBV entry, Myrcludex B (200 nM) was added to the rHBV inoculum (Li and Urban, 2016, Cancer research 42, 3858-3863). The cells were inoculated for 24 hours and maintained in DMEM containing 2.5% DMSO for indicated time according to the experimental set-ups.
Genomic DNA of the cells was isolated using NucleoSpin® Tissue Kit (Macherey-Nagel, 740952.250). The Cre-lox recombination was analyzed by PCR using primers flanking the neomycin sequence (forward, 5′-[…]-3′ (SEQ ID NO: 29) and reverse, 5′-GGTACCGTCGACTGCAGAT-3′ (SEQ ID NO: 30)). The PCR was performed with 250 ng of genomic DNA and Phusion® Hot Start Flex DNA Polymerase (New England Biolabs, M0535S). The reaction required the following conditions: 1 cycle of denaturation at 98° C. for 30 seconds, 35 cycles of amplification (98° C. for 10 seconds, 61° C. for 30 seconds, 72° C. for 45 seconds), and 1 cycle of extension at 72° C. for 1 minute. The PCR products were examined by agarose gel electrophoresis.

rHBV-CreN [2] = test: Western blot of Co-InCre reconstitution and core protein in rHBV-CreN infected CreC/CIR cells; format: cell-based, hepatitis B virus; details: rHBV-CreN infected CreC/CIR cells treated with MyrB
Method: as §1
Cellular proteins were isolated using RIPA buffer (Pierce, 89900) containing a protease inhibitor cocktail (Roche, 11836153001). The proteins were separated by 12% Sodium dodecyl sulphate-polyacrylamide gel electrophoresis (SDS-PAGE) and subsequently transferred onto a polyvinylidene difluoride (PVDF) membrane (Bio-Rad, 162-0177). The blotted membrane was blocked with 5% milk-TBST (20 mM Tris-HCl, pH7.4, 140 mM NaCl, 1% Tween 20). The antibodies were diluted in 1.5% milk-TBST. For core protein detection, an in-house hybridoma supernatant (8C9) was used in a 1:1 dilution. For Co-InCre detection, an anti-Cre antibody (Merck, 69050) was used in a 1:1000 dilution. […]-Actin (1:5000; Sigma, A5441) was used as a reference protein. […] The chemiluminescent signal was detected by Intas ECL ChemoCam.

rHBV-CreN [3] = test: rHBV-CreN infection of CreC/CIR reporter cells with entry inhibitor, DsRed-positive cells by flow cytometry; format: cell-based, hepatitis B virus
Method: as §1, with “For blocking rHBV entry, Myrcludex B (200 nM) was added to the rHBV inoculum (Li and Urban, 2016, Cancer research 42, 3858-3863).” left out
(§2) Cells were collected from 24-well plates using trypsin-versene at a 1:1 ratio (Gibco, 15400-054 and 15040-033). Cell pellets were resuspended in 1 ml of FACS buffer (PBS containing 1% BSA and 0.5 mM EDTA) and incubated with LIVE/DEAD™ Fixable Near-Infrared dead cell stain kit (Invitrogen, L10119). The samples were subjected to CytoFLEX S (Beckman Coulter) and the obtained data was analyzed by FlowJo software (v10, FlowJo LLC.).

rHBV-CreN [4] = test: HBeAg ELISA of supernatant of rHBV-CreN infected CreC/CIR cells; format: cell-based, hepatitis B virus; details: rHBV-CreN MOI=250 with MyrB, day 7 post-infection
Method: as §1
The amount of HBeAg in cell-derived supernatants was measured using a commercial qualitative immunoassay—Enzygnost HBe monoclonal (Siemens, OQDM11) and automated BEP III system (Siemens Healthcare).

[5] = system: rHBV-CreN infected HepG2-NTCP-CreC/CIR cells; test: Negative selection of rHBV-CreN infected cells with Neomycin, flow cytometry; format: cell-based, human; details: Neomycin 2 mg/ml for 30 days
Method: as §2

Row | Substance | 0.2-kb band (ΔNeo) PCR product (rHBV-CreN [1]) | Co-InCre detection (Western blot) (rHBV-CreN [2]) | core protein detection (Western blot) (rHBV-CreN [2]) | number of DsRed-positive cells (rHBV-CreN [3]; CreC/CIR cells, rHBV-CreN MOI=250, MyrB added to the inoculum, day 7 post-infection, FACS) | percentage of DsRed-positive cells (rHBV-CreN [3]; HepG2-NTCP-CreC/CIR cells, rHBV-CreN MOI=300 virions/cell, Myrcludex B 200 nM, 10 days post infection, flow cytometry) | HBeAg level (rHBV-CreN [4]) | reduction of the number of DsRed-positive cells compared to untreated group [5]
1 | Myrcludex-B [MyrB] | absent | not detected | not detected | less than 1% | less than 1% | comparable to that of the mock sample | 
2 | Neomycin |  |  |  |  |  |  | 3.6 fold
